Experimental data taken from ChEMBL document CHEMBL1152998, “Structure-based virtual screening approach to identify novel classes of PTP1B inhibitors” (Eur J Med Chem, 2009).

Molecular target: T1, Tyrosine-protein phosphatase non-receptor type 1 (Homo sapiens, UniProt P18031)
T1 sequence (P18031 whole entry): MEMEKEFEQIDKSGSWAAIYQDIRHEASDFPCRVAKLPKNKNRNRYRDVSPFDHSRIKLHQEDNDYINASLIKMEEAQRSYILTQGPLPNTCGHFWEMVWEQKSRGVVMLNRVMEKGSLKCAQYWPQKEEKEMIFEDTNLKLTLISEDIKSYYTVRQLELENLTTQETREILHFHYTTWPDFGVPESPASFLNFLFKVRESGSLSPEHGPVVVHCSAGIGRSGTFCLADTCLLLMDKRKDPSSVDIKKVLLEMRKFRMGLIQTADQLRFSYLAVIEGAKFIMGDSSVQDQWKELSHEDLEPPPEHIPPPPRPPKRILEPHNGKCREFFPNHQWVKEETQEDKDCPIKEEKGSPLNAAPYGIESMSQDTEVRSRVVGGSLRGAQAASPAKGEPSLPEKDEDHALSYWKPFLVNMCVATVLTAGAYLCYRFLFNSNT
Assay: Inhibition of PTP1B by pNPP hydrolase assay

SMILES	IC50 [µM]
O=C(O)c1cc(-c2ccc(/C=C3\NC(=O)N(c4ccccc4)C3=O)o2)ccc1Cl	34
O=C(O)c1ccc(Nc2cc3ccccc3cc2NS(=O)(=O)c2ccc(F)cc2)cc1	41
N#C/C(=C\c1ccc(-c2ccccc2C(=O)O)o1)C(=O)Nc1ccc2ccccc2c1	27
O=C(O)c1cccc(-c2ccc(-c3nc4sc5c(c4c(=O)[nH]3)CCCC5)o2)c1	25
O=C1NC(=O)/C(=C\c2ccc(OCc3ccc(F)cc3)c(Br)c2)S1	11
O=C1ON=C(c2ccccc2)/C1=C\c1ccccc1OCc1ccccc1Cl	22
CCOc1ccc(-c2csc(C(C#N)CNc3ccc4oc(=O)ccc4c3)n2)cc1 (centres undefined)	28
O=C1NC(=O)N(c2ccccc2)C(=O)/C1=C\c1cn(Cc2cccc3ccccc23)c2ccccc12	12
COc1cc(C)ccc1OCCn1cccc1/C=C1\C(=O)NC(=O)N(c2ccc(C)c(Cl)c2)C1=O	35
